Results reported in the Kinase Knowledgebase extract (Sharma et al. 2016).

Tests used:
CDK2 (human) [1] = target: CDK2 (human) (UniProt P24941); assay: Enzyme Assay
CDK2 (human) [2] = target: CDK2 (human) (UniProt P24941); assay: Cell-Based Assay
CDK2 (human) [3] = target: CDK2 (human) (UniProt P24941); assay: Cell-Based Assay; settings: rko

SMILES | IC50 (CDK2 (human) [1]) [nM] | IC50 (CDK2 (human) [2]; mda-mb-468) [nM] | IC50 (CDK2 (human) [2]; hdf) [nM] | IC50 (CDK2 (human) [2]; hdf-3) [nM] | IC50 (CDK2 (human) [2]; mes/sa) [nM] | IC50 (CDK2 (human) [2]; rko) [nM] | IC50 (CDK2 (human) [3]) [nM]
O=C1Nc2ccc3ncsc3c2/C1=C/Nc1ccc2nn[nH]c2c1 | 30.5 | 3050 | – | – | – | – | –
CN(C)S(=O)(=O)c1ccc(N/C=C2/C(=O)Nc3ccc(-c4cnco4)cc32)cc1 | – | > 5000 | – | – | – | – | –
NS(=O)(=O)c1ccc(NN=C2C(=O)Nc3ccc(-c4cnco4)cc32)cc1 | 5.5 | – | 3050 | 800 | 300 | 800 | 800
CNS(=O)(=O)Cc1ccc(NN=C2C(=O)Nc3ccc4ncccc4c32)cc1 | 5.5 | – | – | 3050 | – | 3050 | –
CS(=O)(=O)Cc1ccc(N/C=C2\C(=O)Nc3ccc4ncsc4c32)cc1 | 30.5 | – | – | 3050 | 3050 | 3050 | –
CN(C)S(=O)(=O)c1ccc(N/C=C2\C(=O)Nc3ccc(-c4cnco4)cc32)cc1 | 5.5 | – | – | – | – | 3050 | 3050
CCC(C)Cc1cccc2c1C(=NNc1ccc(S(N)(=O)=O)cc1)C(=O)N2 (configuration not stated) | 5.5 | – | – | 3050 | – | 3050 | –
CNS(=O)(=O)Cc1ccc(NN=C2C(=O)Nc3cc(C)c(O)c(C)c32)cc1 | 75.5 | – | 800 | 3050 | – | 300 | 300
